In patent US11534457B2, “Use of dextran sulfate” (priority 2017, dated 2022):

Tested on: severe traumatic brain injury (sTBI)
Assay: sTBI in rats, brain gene expression arrays and pathway analysis (Example 9)
Format: in vivo, Male Wistar rats
Conditions: 2 days after TBI
Procedure: The experimental protocol used in this study was approved by the Ethical Committee of the Catholic University of Rome, according to international standards and guidelines for animal care. Male Wistar rats of 300-350 g body weight were fed with standard laboratory diet and water ad libitum in a controlled environment. As the anesthetic mixture, the animals received 35 mg/kg b.w. ketamine and 0.25 mg/kg body weight midazolam by i.p. injection. Severe traumatic brain injury (sTBI) was induced by dropping a 450 g weight from 2 m height on to the rat head that had been protected by a metal disk previously fixed on the skull, according to the “weight drop” impact acceleration model (Marmarou et al., A new model of diffuse brain injury in rats. Part I: Pathophysiology and biomechanics. J Neurosurg. 1994; 80: 291-300). […] At the end of each period of treatment, rats were anesthetized again and then immediately sacrificed.
LMW-DS (Tikomed AB) was provided at a stock concentration of 20 mg/ml and was kept in a temperature-monitored refrigerator at 4° C. LMW-DS aliquots were diluted to the appropriate dosing concentration in sterile saline prior to delivery of a single subcutaneous injection.
Three doses of LMW-DS were administered subcutaneously 30 minutes post-TBI. The animals were sacrificed at 2 days post-TBI. The animals were divided into the following subgroups:
Three doses of LMW-DS were administered subcutaneously 30 minutes post-TBI. The animals were sacrificed at 7 days post-TBI. The animals were divided into the following subgroups:
An in vivo craniectomy was performed on all animals during anesthesia. After carefully removing the rat's skull, the brain was exposed and removed with a surgical spatula and quickly dropped in RNALater and preserved at 4° C. for further processing.
RNA extraction and array processing was carried out by SourceBioscience. The arrays used were the Agilent Rat expression arrays.
Statistical analysis was carried out using the Metaboanalyst software package. Gene expression changes of 10% with a p<0.05 were regarded as significant.
Pathway analysis of the differentially regulated genes was carried out using the Ingenuity pathway analysis package. The analysis was performed with special reference to pathways and molecular processes and diseases associated with neurodegenerative disease, including dementia, Alzheimer's disease, ALS, TBI and stroke, and with scarring and fibrosis, including glaucoma and normal pressure hydrocephalus (NPH) after subarachnoid haemorrhage.

[1] = TBI + 5 mg/kg LMW-DS, relative to control

Substance: low molecular weight dextran sulfate [LMW-DS]
- effect on canonical pathway Adrenomedullin Signaling pathway (TBI + 5 mg/kg LMW-DS): Inhibited
- effect on canonical pathway NF-κ13 Signaling (TBI + 5 mg/kg LMW-DS): Inhibited
- effect on canonical pathway Osteoarthritis Pathway (TBI + 5 mg/kg LMW-DS): Inhibited
- effect on canonical pathway Role of NFAT in Cardiac Hypertrophy (TBI + 5 mg/kg LMW-DS): Inhibited
- z score, Abdominal cancer (TBI + 5 mg/kg LMW-DS): −2.553
- z score, Abdominal carcinoma (TBI + 5 mg/kg LMW-DS): −2.631
- z score, Abdominal neoplasm (TBI + 5 mg/kg LMW-DS): −0.927
- z score, Apoptosis (TBI + 5 mg/kg LMW-DS): 0.601
- z score, Behavior (TBI + 5 mg/kg LMW-DS): −2.009
- z score, Carcinoma (TBI + 5 mg/kg LMW-DS): −2.071
- z score, Cell death (TBI + 5 mg/kg LMW-DS): 0.051
- z score, Cell death of antigen presenting cells (TBI + 5 mg/kg LMW-DS): −0.62
- z score, Cell death of immune cells (TBI + 5 mg/kg LMW-DS): −1
- z score, Cell death of tumor cell lines (TBI + 5 mg/kg LMW-DS): −1.947
- z score, Cell movement (TBI + 5 mg/kg LMW-DS): −3.723
- z score, Cell movement of tumor cell lines (TBI + 5 mg/kg LMW-DS): −2.078
- z score, Cell proliferation of leukocyte cell lines (TBI + 5 mg/kg LMW-DS): −2.754
- z score, Cellular homeostasis (TBI + 5 mg/kg LMW-DS): −3.19
- z score, Chemotaxis (TBI + 5 mg/kg LMW-DS): −3.642
- z score, Development of vasculature (TBI + 5 mg/kg LMW-DS): −1.534
- z score, Digestive organ tumor (TBI + 5 mg/kg LMW-DS): −1.149
- z score, Digestive system cancer (TBI + 5 mg/kg LMW-DS): −2.221
- z score, Edema (TBI + 5 mg/kg LMW-DS): 3.386
- z score, Epithelial neoplasm (TBI + 5 mg/kg LMW-DS): −1.393
- z score, Extracranial solid tumor (TBI + 5 mg/kg LMW-DS): −0.992
- z score, Feeding (TBI + 5 mg/kg LMW-DS): −0.895
- z score, Growth of tumor (TBI + 5 mg/kg LMW-DS): −1.233
- z score, Hematologic cancer (TBI + 5 mg/kg LMW-DS): −1.067
- z score, Incidence of tumor (TBI + 5 mg/kg LMW-DS): −0.731
- z score, Leukocyte migration (TBI + 5 mg/kg LMW-DS): −2.163
- z score, Leukopoiesis (TBI + 5 mg/kg LMW-DS): −3.549
- z score, Lymphocyte homeostasis (TBI + 5 mg/kg LMW-DS): −2.94
- z score, Lymphocytic cancer (TBI + 5 mg/kg LMW-DS): −0.48
- z score, Lymphocytic neoplasm (TBI + 5 mg/kg LMW-DS): −0.48
- z score, Lymphopoiesis (TBI + 5 mg/kg LMW-DS): −3.105
- z score, Lymphoproliferative disorder (TBI + 5 mg/kg LMW-DS): −0.48
- z score, Malignant solid tumor (TBI + 5 mg/kg LMW-DS): −1.492
- z score, Metabolism of hormone (TBI + 5 mg/kg LMW-DS): −1.632
- z score, Migration of cells (TBI + 5 mg/kg LMW-DS): −3.087
- z score, Necrosis (TBI + 5 mg/kg LMW-DS): −1.503
- z score, Neoplasia of leukocytes (TBI + 5 mg/kg LMW-DS): −0.48
- z score, Non-melanoma solid tumor (TBI + 5 mg/kg LMW-DS): −1.249
- z score, Proliferation of hematopoietic progenitor cells (TBI + 5 mg/kg LMW-DS): −2.951
- z score, Quantity of cells (TBI + 5 mg/kg LMW-DS): −3.092
- z score, Quantity of epithelial tissue (TBI + 5 mg/kg LMW-DS): −0.028
- z score, Quantity of neuroglia (TBI + 5 mg/kg LMW-DS): −1.446
- z score, Resorption of bone (TBI + 5 mg/kg LMW-DS): −0.478
- z score, Secretion of molecule (TBI + 5 mg/kg LMW-DS): 1.634
- z score, Synthesis of hormone (TBI + 5 mg/kg LMW-DS): −1.632
- z score, Transport of molecule (TBI + 5 mg/kg LMW-DS): 0.248
- z score, Vasculogenesis (TBI + 5 mg/kg LMW-DS): −2.274
- z score, canonical pathway Adrenomedullin Signaling pathway [1]: −2.236
- z score, canonical pathway NF-κb Signaling [1]: −2
- z score, canonical pathway Osteoarthritis Pathway [1]: −2.646
- z score, canonical pathway Role of NFAT in Cardiac Hypertrophy [1]: −1.63
- z score, Apoptosis (TBI + 15 mg/kg LMW-DS): −0.502
- z score, Apoptosis of tumor cell lines (TBI + 15 mg/kg LMW-DS): 0.09
- z score, Behavior (TBI + 15 mg/kg LMW-DS): −0.139
- z score, Cell death (TBI + 15 mg/kg LMW-DS): −0.141
- z score, Necrosis (TBI + 15 mg/kg LMW-DS): −0.477
- z score, Quantity of blood cells (TBI + 15 mg/kg LMW-DS): −0.34
- z score, Quantity of cells (TBI + 15 mg/kg LMW-DS): −0.797
- z score, Quantity of lymphocytes (TBI + 15 mg/kg LMW-DS): −0.943
- Diseases or functions annotation: Abdominal cancer (TBI + 1 mg/kg LMW-DS): Inhibited
- Diseases or functions annotation: Abdominal carcinoma (TBI + 1 mg/kg LMW-DS): Inhibited
- Diseases or functions annotation: Abdominal neoplasm (TBI + 1 mg/kg LMW-DS): Inhibited
- Diseases or functions annotation: Activation of blood cells (TBI + 1 mg/kg LMW-DS): Activated
- Diseases or functions annotation: Activation of cells (TBI + 1 mg/kg LMW-DS): Activated
- Diseases or functions annotation: Activation of leukocytes (TBI + 1 mg/kg LMW-DS): Activated
- Diseases or functions annotation: Activation of lymphocytes (TBI + 1 mg/kg LMW-DS): Inhibited
- Diseases or functions annotation: Adhesion of tumor cell lines (TBI + 1 mg/kg LMW-DS): Activated
- Diseases or functions annotation: Apoptosis (TBI + 1 mg/kg LMW-DS): Inhibited
- Diseases or functions annotation: Apoptosis of muscle cells (TBI + 1 mg/kg LMW-DS): Activated
- Diseases or functions annotation: Behavior (TBI + 1 mg/kg LMW-DS): Activated
- Diseases or functions annotation: Binding of tumor cell lines (TBI + 1 mg/kg LMW-DS): Activated
- Diseases or functions annotation: Carcinoma (TBI + 1 mg/kg LMW-DS): Inhibited
- Diseases or functions annotation: Cell death (TBI + 1 mg/kg LMW-DS): Inhibited
- Diseases or functions annotation: Cell death of blood cells (TBI + 1 mg/kg LMW-DS): Activated
- Diseases or functions annotation: Cell death of immune cells (TBI + 1 mg/kg LMW-DS): Activated
- Diseases or functions annotation: Cell movement (TBI + 1 mg/kg LMW-DS): Activated
- Diseases or functions annotation: Cell movement of muscle cells (TBI + 1 mg/kg LMW-DS): Inhibited
- Diseases or functions annotation: Cell movement of vascular smooth muscle cells (TBI + 1 mg/kg LMW-DS): Inhibited
- Diseases or functions annotation: Cell proliferation of T lymphocytes (TBI + 1 mg/kg LMW-DS): Inhibited
- Diseases or functions annotation: Cellular homeostasis (TBI + 1 mg/kg LMW-DS): Activated
- Diseases or functions annotation: Development of connective tissue cells (TBI + 1 mg/kg LMW-DS): Inhibited
- Diseases or functions annotation: Differentiation of bone cells (TBI + 1 mg/kg LMW-DS): Inhibited
- Diseases or functions annotation: Differentiation of connective tissue cells (TBI + 1 mg/kg LMW-DS): Activated
- Diseases or functions annotation: Differentiation of hematopoietic progenitor cells (TBI + 1 mg/kg LMW-DS): Activated
- Diseases or functions annotation: Differentiation of osteoclasts (TBI + 1 mg/kg LMW-DS): Inhibited
- Diseases or functions annotation: Digestive organ tumor (TBI + 1 mg/kg LMW-DS): Inhibited
- Diseases or functions annotation: Experimentally-induced arthritis (TBI + 1 mg/kg LMW-DS): Inhibited
- Diseases or functions annotation: Extracranial solid tumor (TBI + 1 mg/kg LMW-DS): Activated
- Diseases or functions annotation: Genital tumor (TBI + 1 mg/kg LMW-DS): Activated
- Diseases or functions annotation: Incidence of tumor (TBI + 1 mg/kg LMW-DS): Inhibited
- Diseases or functions annotation: Inflammation of absolute anatomical region (TBI + 1 mg/kg LMW-DS): Inhibited
- Diseases or functions annotation: Inflammation of body cavity (TBI + 1 mg/kg LMW-DS): Inhibited
- Diseases or functions annotation: Inflammation of joint (TBI + 1 mg/kg LMW-DS): Inhibited
- Diseases or functions annotation: Inflammation of organ (TBI + 1 mg/kg LMW-DS): Inhibited
- Diseases or functions annotation: Inflammatory response (TBI + 1 mg/kg LMW-DS): Activated
- Diseases or functions annotation: Interaction of mononuclear leukocytes (TBI + 1 mg/kg LMW-DS): Activated
- Diseases or functions annotation: Leukocyte migration (TBI + 1 mg/kg LMW-DS): Activated
- Diseases or functions annotation: Leukopoiesis (TBI + 1 mg/kg LMW-DS): Activated
- Diseases or functions annotation: Lymphopoiesis (TBI + 1 mg/kg LMW-DS): Activated
- Diseases or functions annotation: Malignant solid tumor (TBI + 1 mg/kg LMW-DS): Inhibited
